Experimental data as given in a melting point compilation (Tetko et al.; mined from patent text by program, amines drawn as free bases though some values may be those of a salt).

Point of comparison: `COc1cc2c(C=O)c[nH]c2c2c1OCCC2=O`, melting point 236 °C. Against it:
- CCN(CC)CCNc1ccc(C2C(C(=O)OC)=C(C)NC(C)=C2C(=O)OC)cc1[N+](=O)[O-] — lower, 161 °C
- O=C(c1cc2cc3[nH]c(=O)[nH]c3cc2[nH]1)N1CCC(Cc2ccccc2)CC1 — higher, > 270 °C
- CC(=O)N(C)c1cccc(S(=O)(=O)c2ccc([N+](=O)[O-])cc2)c1 — lower, 194 to 195 °C
- CN(c1ccc(Cl)cc1[N+](=O)[O-])S(=O)(=O)c1ccc(Cl)s1 — lower, 85 to 86 °C
- CCCCCCOc1c(Br)ccc2c(OCCCCCC)c(Br)ccc12 — lower, 41 to 43 °C
- CCOC(=O)c1cnn(-c2ccc(OCC(CC)CC)c(C#N)c2)c1 — lower, 114 to 115 °C
- O=C(c1c[nH]c(C(=O)CCl)c1)c1ccc2ccccc2c1 — lower, 175 to 177 °C
- COC(=O)c1cc(O)nn1Cc1ccc(Cl)cc1Cl — lower, 222 to 223 °C
- O=C(O)C(Cc1ccccc1)c1ccc([N+](=O)[O-])cc1 (configuration not stated) — lower, 163 to 164 °C
- COC(=O)CCc1cccc(-c2ccccc2)c1 — lower, 29 to 30 °C
- Cc1cc(SCc2ccc(-c3ccc(C(F)(F)F)cn3)cc2)c2c(c1OCC(=O)O)CCC2 — lower, 186 °C
- CCOC(=O)C(CC(=O)c1cccc(OC)c1)(NC(C)=O)C(=O)OCC — lower, 119 to 120 °C
- CCCCc1oc2ccc(C(=O)OC)cc2c1C(=O)c1ccc(OC)cc1 — lower, 75 to 78 °C
- CC(=O)OC1COC(N=[N+]=[N-])C(OC(C)=O)C1OC(C)=O (configuration not stated) — lower, 76 °C
- Cc1cc(C2=NNC(=O)SC2C)cc2c1NC(=O)C2(C)C (configuration not stated) — higher, 260 °C
- COc1ccc(-n2nc(O)c3c(=O)c4ccc(Cl)cc4[nH]c3c2=O)cc1 — higher, 371 to 373 °C
- C[C@@H]1Cc2cc3c(cc2C(c2ccc(N)cc2)=NN1c1ccccn1)OCO3 — lower, 128 to 130 °C
- Oc1cccc(-c2c(-c3ccccc3F)cnc3c(C(F)(F)F)cccc23)c1 — lower, 186 to 187 °C
- CCCCCCCCCCCCn1nnc(CC(=O)O)n1 — lower, 70 to 73 °C
- Cc1ccc(OC2SCC(O)C(O)C2O)cn1 (configuration not stated) — lower, 233 °C
- CS(=O)(=O)c1ccc(-c2cnn(-c3cccc(Cl)c3)c(=O)c2OCc2ccccc2)cc1 — lower, 110 to 113 °C
- CC(=O)OCc1nc(C#N)cc(OCc2ccccc2)c1OCc1ccccc1 — lower, 98 to 99 °C
- COc1cc(C(=O)C#CC(=O)OCC=C(C)C)cc(OC)c1OC — lower, 52 to 53 °C
- COc1ccc(CN2C(=O)c3c(-c4ccccc4Cl)cc4c(c3C2=O)c2cc(OC)ccc2n4CCC(O)CO)c(OC)c1 (configuration not stated) — lower, 126 to 131 °C
- COc1c(Br)cccc1[N+](=O)[O-] — lower, 55 to 56 °C
- O=[N+]([O-])c1ccc(-c2nc(-c3cccnc3)no2)cc1 — lower, 163 to 166 °C
- CC(C)C(=O)c1c(C(C)C)nn2ccccc12 — lower, 53 to 55 °C
- CC(=O)N1N=C(c2ccc([N+](=O)[O-])cc2)c2cc3c(cc2CC1C)OCO3 (configuration not stated) — lower, 140 to 142 °C
- O=C(O)CCCOc1cccc(CCCCCCOc2cc(-c3ccsc3)cc(-c3ccc4c(c3)OCO4)c2)c1CCC(=O)O — lower, 110 to 112 °C
- O=C(NC1CCCCC1)OC1c2nccnc2C(=O)N1c1ccc2ccc(Cl)nc2n1 (configuration not stated) — higher, 264 °C
- CCCC(=O)CCCC(=O)CCCSCCCC(C)(C)C(=O)OCC — lower, 104 to 105 °C
- CN1CCCN(C(=O)c2ccc3n2Cc2ccccc2N(C(=O)c2ccc(C4CCCCC4)cc2)C3)CC1 — lower, 133 to 136 °C
- Cc1nc2ccccc2c(=O)n1NC(=O)Nc1ccc(Cl)cc1 — lower, 228 to 230 °C
- CC(C)(C#N)c1ccc(Cl)nc1 — lower, 63 to 65 °C
- CCCCCCS(=O)(=O)c1ccccc1C1NC(=O)NC1=O (configuration not stated) — lower, 188 to 189 °C
- CCOP(=S)(OCC)ON=C1C=CC(=C(C#N)c2ccccc2C)S1 — lower, 86 to 87 °C
- c1ccc2c(c1)-c1ccccc1C21c2ccccc2-c2ccccc21 — lower, 198 °C
- c1csc(-c2cnc(-c3cccs3)o2)c1 — lower, 64.5 to 66 °C
- CCN(CC)C(=O)c1cc(C(C)(C)C)c(O)c(C(C)(C)C)c1 — lower, 136 to 138 °C
- CC(=O)Nc1ncc2ncn(COC(COC(C)C)COC(C)C)c2n1 — lower, 85 to 86 °C
- CC(=O)Nc1c(C(=O)c2ccccc2)[nH]c2ccc(Br)cc12 — lower, 192 to 194 °C
- COc1ccc(COC(=O)c2cc([N+](=O)[O-])c3ccccc3c2OS(=O)(=O)C(F)(F)F)cc1 — lower, 74 to 75 °C
- COc1c(C)cnc(CSc2nc3cc4c(cc3[nH]2)OC(F)C(F)(F)O4)c1C (configuration not stated) — lower, 138 to 140 °C
- O=C(O)C=Cc1ccc(-c2cnc(CSCCOc3ccccc3)o2)cc1 — lower, 150 to 153 °C
- COc1cc(OC)cc(-c2ncoc2-c2ccc(OC)c(N)c2O)c1 — lower, 152 to 154 °C
- Brc1ccc2c(ccn2Cc2ccccc2)c1 — lower, 90 °C
- O=C(O)c1ccc(NCc2sc(Cl)cc2Cl)cc1 — lower, 169 to 170 °C
- CS(=O)(=O)Nc1ccc(NC(=O)CN2CCC(Cc3ccccc3)CC2)cc1 — lower, 102 to 106 °C
- CNc1nc(C)nc(N2CCCc3ccccc32)n1 — lower, 159 to 160 °C
- O=[N+]([O-])c1cccc(-c2ccc3c(n2)[nH]c2ccccc23)c1 — lower, 185 °C
- COc1ccc(Cl)cc1NC(=O)[C@H]1[C@H](c2cccc(C)c2)C1(C)C (relative stereo) — lower, 148 to 150 °C
- Cc1nc2cc3c(cc2c(=O)[nH]1)C(N(C)c1ccc(C(=O)NC(C(=O)O)c2ccc(CC(=O)O)cc2)c(F)c1)CC3 (mixture of isomers) — lower, 196 to 200 °C
- CNC1N=CN(c2c(C)cccc2Cl)C(=O)N1 (configuration not stated) — higher, 254 to 256 °C
- COC(=O)CCC#Cc1cccc(Br)n1 — lower, 59 to 61 °C
- O=C(N[C@H](Cc1ccccc1)C(=O)O)C1CCCC1 — lower, 102 to 104 °C
- Fc1ccc(-c2ncn(C3CCNCC3)c2-c2ccnc(Oc3ccc(Oc4ccccc4)cc3)n2)cc1 — lower, 174 to 175 °C
- CC(=CC(=O)O)c1ccc(-c2ccc(F)cc2)cc1 — lower, 58 to 60 °C
- CC(=O)N(O)C(C)c1ccccc1Nc1c(Cl)ccc(C)c1Cl (configuration not stated) — lower, 185 to 187 °C
- CC(=NOCC(=O)O)c1ccc(Cl)c(Cl)c1 — lower, 128 to 129 °C
- Cc1ccc(C(=O)c2c(C)cc(CC(=O)O)n2C)cc1 — lower, 160 to 161 °C
- Oc1ccc(-c2ncc3ncc(Nc4cccnc4)cc3n2)cc1 — higher, > 268 °C
- CC(c1ccccc1)N1CC(CCl)C(c2ccccc2)(c2ccccc2)C1=O (configuration not stated) — lower, 115 to 120 °C
- CCN(CC)CCC(N)=NO — lower, 52 to 54 °C
- Cc1nc(N2CCN(CC(C)C)C2=O)sc1C(=O)NCc1ccn(C)n1 — lower, 158 to 161 °C
- O=c1cc(-c2ccccc2)oc(N2CCOCC2)c1 — lower, 148 to 150 °C
- CNS(=O)(=O)Nc1ccc(OCC2CCN(c3ccncc3)CC2)cc1 — lower, 170 to 172 °C
- CC(=O)N[C@@H]1[C@H](O)CC(C(=O)O)=C[C@H]1OC(C)C — lower, 64 to 65 °C
- CN1C(=O)C(NS(=O)(=O)CC23CCC(CC2=O)C3(C)C)N=C(c2ccccc2)c2ccccc21 (configuration not stated) — lower, 204 to 206 °C
- COCCOCCn1cc(C(=O)NCc2ccc(Cl)cc2)c(=O)c2cc(CO)ccc21 — lower, 161 to 162 °C
- CC(=S)NC[C@H]1CN(c2ccc(N3CCC(=C(C)C#N)CC3)c(F)c2)C(=O)O1 — lower, 171 to 172 °C
- CCOC(=O)c1ccc(C=O)cn1 — lower, 59 °C
- COc1ccccc1Nc1cccc(C(=O)Nc2ccccc2)c1 — lower, 153 to 154 °C
- Cc1cc(Oc2cccc(C#N)n2)n(C)n1 — lower, 95 °C
- CCC(=O)OCC(=O)OC1C(CC)CC2C3CCC4=CC(=O)CCC4C3CCC21C (configuration not stated) — lower, 101 to 104 °C
- CCOC(=O)c1cnc2c3cc(NS(C)(=O)=O)ccc3ncn2c1=O — higher, 310 to 312 °C
- Cc1nc2ccccc2c2c1OC(C)CN2 (configuration not stated) — lower, 169 to 170 °C
- NS(=O)(=O)c1ccc(-c2noc(-c3cnn4c(C(F)(F)F)cc(-c5ccc(C(F)(F)F)cc5)nc34)n2)s1 — higher, 276 °C
- COc1cc2oc(=O)c(CCO)c(C)c2cc1OC(C)C — lower, 110 to 112 °C
- CCCCc1nc(N)cc(=O)[nH]1 — higher, 242 to 245 °C
- NC(=O)CCCCC1OCC(c2cccc3ccccc23)CO1 (configuration not stated) — lower, 158 to 160 °C
- COC(=O)c1nc(SC)n(-c2ccccc2)c1C(=O)OC — lower, 121 to 122 °C
- CC(C)(C)OC(=O)N[C@@H](CC1CCCCC1)[C@@H](O)[C@@H](O)C1CC1 — lower, 83 to 85 °C
- C/C(=C\c1ccc(C(=O)O)cc1)c1ccc2c(c1)CC(C)(C)CC(C)(C)C2 — lower, 232 to 235 °C
- CC#CC1(O)CCC2C3CCC4=CC(=O)CCC4C3C(C(F)F)CC21C (configuration not stated) — lower, 191 to 193 °C
- COC12CC(C)(C)C(O1)C(OC(=O)c1ccc([N+](=O)[O-])cc1)C=C2C (configuration not stated) — lower, 140 to 141 °C
- CCCCCCCCCc1ccc(C(=O)[C@@H]2CCCC[C@H]2C(=O)O)cc1 (relative stereo) — lower, 84 to 86 °C
- CC(=O)Nc1sc(-c2ccc(F)cc2)cc1C(N)=O — lower, 230 to 233 °C
- Cc1cc(N)c(C)nc1OC(F)F — lower, 38.4 to 39.4 °C
- CCOCc1nc2cnc3cccnc3c2n1CC1(O)CCOCC1 — lower, 168 to 169 °C
- CC1NC(C#N)=C(C#N)NC1=O (configuration not stated) — higher, 243 to 245 °C
- CC(=O)SC[C@@H](C(=O)N[C@H](CC(C)C)c1nnn[nH]1)C(F)(F)F — lower, 180 to 184 °C
- CC(C)N(C(=O)c1ccc(CN2CCOc3cnccc32)c(Br)c1)C1CCCCC1 — lower, 191 to 192 °C
- O=C(O)CCSSc1ccccc1 — lower, 58 °C
- COc1ccc(C2c3[nH]c4ccccc4c3CCN2C(=O)C=Cc2ccccc2)cc1 (configuration not stated) — lower, 127 °C
- CN1CCN(C2=Cc3ccccc3Sc3cc(Cl)c(Cl)cc32)CC1 — lower, 157 to 159 °C
- O=C(O)c1ccc(Cl)cc1OCCN1CCC(c2cn(Cc3ccoc3)c3ncccc23)CC1 — lower, 81.6 to 83.3 °C
- CCCC/C(=C\C(=O)O)c1cc(OC)c(O)c2c(CC)cccc12 — lower, 139 to 140 °C
- O=Cc1c2cccc(Cl)c2cc2c(Cl)cccc12 — lower, 218 to 220 °C
- Cc1ccc(S(=O)(=O)NN=C2CCCCCCCC2)cc1 — lower, 135 to 138 °C
- O=C1NC(=O)N(Cc2ccccc2)C(=O)C1Cc1ccccc1 (configuration not stated) — lower, 107 to 109 °C
- COC(=O)OC(Cc1ccc(OCCc2nc(-c3ccccc3)oc2C)cc1)C(N)=O (configuration not stated) — lower, 171 to 174 °C
